Results published in patent US20230123334A1, “AMINO LIPID COMPOUND, PREPARATION METHOD THEREFOR, AND APPLICATION THEREOF” (SHENZHEN SHENXIN BIOTECHNOLOGY CO., LTD., priority 2020, published 2023).

Experiments:
HEK293 cells [1] = assay: Preliminary screening as DNA vectors, GFP transfection of HEK293 cells; assay type: cell-based; conditions: HEK293 cells; lipid/DOPE liposome with 75 ng plasmid DNA (psin-EGFP-IRES-Puro); number of cells expressing GFP divided by total number of nuclei (Hoechst)
Outline: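 First, amino lipid and DOPE were vortexed in sodium acetate buffer (pH 5.6) to form liposomes. Next, these were held with 75 ng EGFP plasmid at room temperature for 30 min. Finally, HEK293 cells were added, cultured at 37° C., Hoechst-stained, and GFP+/total nuclei scored by imaging.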

HEK293 cells [2] = assay: Preliminary screening as mRNA vectors, EGFP mRNA transfection of HEK293 cells; assay type: cell-based; conditions: HEK293 cells, 96-well plates, EGFP mRNA 50 ng per well; percentage of GFP fluorescent cells relative to total number of cells (Hoechst)
Outline: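 Screening format: EGFP mRNA transfection (50 ng/well) into HEK293 in 10% FBS-supplemented DMEM. Percent green fluorescent cells, normalised to Hoechst nuclear count, gave the value; Lipofectamine2000 was the reference transfectant.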

Row | SMILES | Absolute DNA transfection efficiency in HEK293 cells (HEK293 cells [1]) [%] | Absolute mRNA transfection efficiency in HEK293 cells (HEK293 cells [2]) [%]
1 | CCCCCCCNc1nc(NCCCCCCC)nc(NCCN2CCCCC2)n1 [Compound N7N7D4] | 0.0 | 0.0
2 | CCCCCCCNc1nc(NCCCCCCC)nc(NCCN2CCN(C)CC2)n1 [Compound N7N7D5] | 0.0 | 0.5
3 | CCCCCCCNc1nc(NCCCCCCC)nc(NCCCN(C)C)n1 [Compound N7N7D6] | 0.0 | 0.0
4 | CCCCCCCNc1nc(NCCCCCCC)nc(NCCN(CC)CC)n1 [Compound N7N7D7] | 0.0 | 0.0
5 | CCCCCCCNc1nc(NCCCCCCC)nc(NCCCN2CCOCC2)n1 [Compound N7N7D8] | 0.0 | 0.0
6 | CCCCCCCNc1nc(NCCCCCCC)nc(NCCCN2CCN(C)CC2)n1 [Compound N7N7D9] | 0.0 | 0.0
7 | CCCCCCCNc1nc(NCCCCCCC)nc(NCC2CCN(C)CC2)n1 [Compound N7N7D10] | 0.1 | 0.0
8 | CCCCCCCCNc1nc(NCCCCCCC)nc(NCCN(C)C)n1 [Compound N7N8D1] | 0.2 | 0.0
9 | CCCCCCCCNc1nc(NCCCCCCC)nc(NCCN2CCOCC2)n1 [Compound N7N8D2] | 0.0 | 0.3
10 | CCCCCCCCNc1nc(NCCCCCCC)nc(NCCN2CCCC2)n1 [Compound N7N8D3] | 0.5 | 3.7
11 | CCCCCCCCNc1nc(NCCCCCCC)nc(NCCN2CCCCC2)n1 [Compound N7N8D4] | 0.2 | 0.0
12 | CCCCCCCCNc1nc(NCCCCCCC)nc(NCCN2CCN(C)CC2)n1 [Compound N7N8D5] | 0.0 | 0.0
13 | CCCCCCCCNc1nc(NCCCCCCC)nc(NCCCN(C)C)n1 [Compound N7N8D6] | 0.0 | 0.0
14 | CCCCCCCCNc1nc(NCCCCCCC)nc(NCCN(CC)CC)n1 [Compound N7N8D7] | 0.0 | 0.0
15 | CCCCCCCCNc1nc(NCCCCCCC)nc(NCCCN2CCOCC2)n1 [Compound N7N8D8] | 0.0 | 0.0
16 | CCCCCCCCNc1nc(NCCCCCCC)nc(NCCCN2CCN(C)CC2)n1 [Compound N7N8D9] | 0.7 | 0.2
17 | CCCCCCCCNc1nc(NCCCCCCC)nc(NCC2CCN(C)CC2)n1 [Compound N7N8D10] | 0.0 | 0.6
18 | CCCCCCCCCNc1nc(NCCCCCCC)nc(NCCN(C)C)n1 [Compound N7N9D1] | 0.6 | 0.0
19 | CCCCCCCCCNc1nc(NCCCCCCC)nc(NCCN2CCOCC2)n1 [Compound N7N9D2] | 0.0 | 0.0
20 | CCCCCCCCCNc1nc(NCCCCCCC)nc(NCCN2CCCC2)n1 [Compound N7N9D3] | 0.0 | 0.1
21 | CCCCCCCCCNc1nc(NCCCCCCC)nc(NCCN2CCCCC2)n1 [Compound N7N9D4] | 0.0 | 0.0
22 | CCCCCCCCCNc1nc(NCCCCCCC)nc(NCCN2CCN(C)CC2)n1 [Compound N7N9D5] | 0.0 | 0.2
23 | CCCCCCCCCNc1nc(NCCCCCCC)nc(NCCCN(C)C)n1 [Compound N7N9D6] | 0.0 | 0.0

Row | SMILES | Absolute DNA transfection efficiency in HEK293 cells (HEK293 cells [1]) [%] | Absolute mRNA transfection efficiency in HEK293 cells (HEK293 cells [2]) [%]
24 | CCCCCCCCCNc1nc(NCCCCCCC)nc(NCCN(CC)CC)n1 [Compound N7N9D7] | 0.0 | 0.0
25 | CCCCCCCCCNc1nc(NCCCCCCC)nc(NCCCN2CCOCC2)n1 [Compound N7N9D8] | 0.0 | 0.0
26 | CCCCCCCCCNc1nc(NCCCCCCC)nc(NCCCN2CCN(C)CC2)n1 [Compound N7N9D9] | 0.7 | 0.0
27 | CCCCCCCCCNc1nc(NCCCCCCC)nc(NCC2CCN(C)CC2)n1 [Compound N7N9D10] | 0.4 | 0.1
28 | CCCCCCCCCCCNc1nc(NCCCCCCC)nc(NCCN(C)C)n1 [Compound N7N11D1] | 1.3 | 0.0
29 | CCCCCCCCCCCNc1nc(NCCCCCCC)nc(NCCN2CCOCC2)n1 [Compound N7N11D2] | 0.1 | 0.0
30 | CCCCCCCCCCCNc1nc(NCCCCCCC)nc(NCCN2CCCC2)n1 [Compound N7N11D3] | 1.0 | 1.3
31 | CCCCCCCCCCCNc1nc(NCCCCCCC)nc(NCCN2CCCCC2)n1 [Compound N7N11D4] | 1.4 | 0.1
32 | CCCCCCCCCCCNc1nc(NCCCCCCC)nc(NCCN2CCN(C)CC2)n1 [Compound N7N11D5] | 0.6 | 0.1
33 | CCCCCCCCCCCNc1nc(NCCCCCCC)nc(NCCCN(C)C)n1 [Compound N7N11D6] | 1.1 | 1.5
34 | CCCCCCCCCCCNc1nc(NCCCCCCC)nc(NCCN(CC)CC)n1 [Compound N7N11D7] | 0.0 | 0.0
35 | CCCCCCCCCCCNc1nc(NCCCCCCC)nc(NCCCN2CCOCC2)n1 [Compound N7N11D8] | 0.0 | 0.0
36 | CCCCCCCCCCCNc1nc(NCCCCCCC)nc(NCCCN2CCN(C)CC2)n1 [Compound N7N11D9] | 0.1 | 0.0
37 | CCCCCCCCCCCNc1nc(NCCCCCCC)nc(NCC2CCN(C)CC2)n1 [Compound N7N11D10] | 0.7 | 0.2
38 | CCCCCCCCCCCCNc1nc(NCCCCCCC)nc(NCCN(C)C)n1 [Compound N7N12D1] | 0.2 | 0.1
39 | CCCCCCCCCCCCNc1nc(NCCCCCCC)nc(NCCN2CCOCC2)n1 [Compound N7N12D2] | 0.0 | 0.0
40 | CCCCCCCCCCCCNc1nc(NCCCCCCC)nc(NCCN2CCCC2)n1 [Compound N7N12D3] | 3.5 | 6.3
41 | CCCCCCCCCCCCNc1nc(NCCCCCCC)nc(NCCN2CCCCC2)n1 [Compound N7N12D4] | 0.0 | 0.6
42 | CCCCCCCCCCCCNc1nc(NCCCCCCC)nc(NCCN2CCN(C)CC2)n1 [Compound N7N12D5] | 0.3 | 0.0
43 | CCCCCCCCCCCCNc1nc(NCCCCCCC)nc(NCCCN(C)C)n1 [Compound N7N12D6] | 0.4 | 0.2
44 | CCCCCCCCCCCCNc1nc(NCCCCCCC)nc(NCCN(CC)CC)n1 [Compound N7N12D7] | 0.0 | 0.0
45 | CCCCCCCCCCCCNc1nc(NCCCCCCC)nc(NCCCN2CCOCC2)n1 [Compound N7N12D8] | 0.1 | 0.0
